Measurements: PMC13267291, “In vivo functional profiling and structural characterization of the human GLP1R A316T variant” (Science Advances, 2026)

Legend:
[1] = system: SNAP/FLAG-hGLP1R^A316T versus ^WT; assay: GLP-1R recruitment to detergent-resistant membrane fractions (lipid rafts); assay type: cell-based, human; settings: 100 nM, 2 min; fold to vehicle; n = 5; Fig. 8G
Method: signal serially monitored for 30 min. The TR-FRET ratio, i.e. the ratio of fluorescence intensities at 590 and 490 nm, was considered indicative of the proximity of the GLP-1R ECD to the plasma membrane.
Baseline-normalised AUCs were used to generate concentration– response curves fitted using GraphPad Prism 10.1.2, with logEC50 and Emax calculated for each replicate dose response curve.
Real- time c ytosolic c alcium a ssay hGLP1R-/- mouse islets were transduced with pAV- SNAP/FLAG-hGLP1RWT or A316T adenoviruses for 24 hours, labelled with the Ca2+ dye Cal-520, AM (4.5 μM; Stratech) diluted in KBRH buffer containing 6 mM glucose for 1 hour and encased in Matrigel onto […] glass bottom MatTek dishes. […] Raw fluorescence intensity traces from islet ROIs were extracted using Fiji. Responses were plotted relative to the average fluorescence intensity during the 6 mM glucose baseline period, before agonist addition, and AUCs separately calculated for the GLP- 1RA + 6 mM and 11 mM glucose […]
were resuspended in 200 μL ice-cold PBS supplemented with cOmplete EDTA-free protease inhibitor cocktail (Roche) and phosphatase inhibitor cocktail 2 and 1% Triton X-100, followed by rotating incubation for 30 min at 4°C. […] GLP-1R enrichment into DRMs was calculated from SNAP over flotillin band intensity levels under the different conditions […]

[2] = system: human GLP-1R A316T versus WT; assay: Insulin secretion assay in mouse islets; assay type: cell-based; settings: chow-fed mouse islets; 100 nM; 16 hours; n = 4; Fig. 5H
Method: Purified mouse islets used for insulin secretion assays were treated in 24-well nonadherent plates. Eight islets were used per replicate with three technical replicates per condition. For acute studies, islets were preincubated for 1 hour in KRBH buffer containing 0.1% (w/v) bovine serum albumin (BSA) (10775835001, Roche) and 3 mM glucose before incubation with 11 mM glucose ± 100 nM GLP-1RAs or the GLP-1R antagonist exendin-9 in KRBH buffer in a shaking 37°C water bath (80 rpm) for 1 hour. For overnight studies, preincubation was carried out in RPMI 1640 medium containing FBS, P/S, and 3 mM glucose, followed by treatment with medium supplemented with 11 mM glucose ± GLP-1RAs for 16 hours. Supernatants containing secreted insulin were collected, centrifuged at 1000 rpm for 1 min, and transferred to fresh tubes. For total insulin content, islets were lysed using acidic ethanol (75% ethanol, 1.5 mM HCl). Lysates were sonicated 3× 10 s each in a water bath and centrifuged at 10,000g for 10 min, and supernatants were collected. For human islets, the same experiment was performed with islets previously transduced with pAV-SNAP/FLAG-hGLP1R^WT or ^A316T adenoviruses (generated by VectorBuilder) at a multiplicity of infection of 1, 24 hours before the start of experiments. Insulin secretion assays with the human EndoC-βH3 cell line were performed following 3 weeks of treatment with 4-hydroxytamoxifen as above, followed by transduction with pAV-SNAP/FLAG-hGLP1R^WT or ^A316T adenoviruses, with insulin secretion assessed as previously described ([54]), with the following modifications: After preincubation with 0.5 mM glucose KRBH buffer, cells were stimulated with 15 mM glucose ± exendin-4 for 60 min. Total and secreted insulin samples from islets and cells were stored at −20°C until quantification using an Insulin Ultra-Sensitive HTRF kit (#62IN2PEG, Revvity) in a PHERAstar plate reader (BMG Labtech), according to the manufacturer’s instructions.

Row | Substance | Lipid raft segregation/localization in response to agonist, A316T versus WT [1] | Agonist-mediated increase in glucose-stimulated insulin secretion (fold over 11 mM glucose) following overnight exposure, A316T/A316T versus +/+ islets [2]
1 | GLP-1(7-36)NH2 | no changes | 
2 | exendin-4 | significantly reduced | complete loss of the potentiating effect
3 | exendin-F1 |  | no significantly detrimental effect
